In the data set the test system is BALB/cA Jcl-nu mice transplanted with human lung cancer cell line NCI-H441. The data set is described as follows: Toxicity alleviating effect against pemetrexed in tumor-bearing mouse. The note with it: deaths/animals during the test, pemetrexed 50 mg/kg/day, Compound 1 600 mg/kg/day.

Structures are written as SMILES.

Procedure: Cells of a human lung cancer cell line, NCI-H441, were suspended in a PBS containing 50% [sequence], and the suspension was transplanted subcutaneously into the right-side chest of each of 8-week old BALB/cA Jcl-nu mice (Crea-Japan, Inc.) in an amount of 5×10^6 cells/0.1 mL/body. At the time when the average tumor volume after grouping became more than 100 mm^3, the major axis and the minor axis of the tumor were measured, and grouping was performed such that there would be no fluctuations in the tumor volumes of the various groups (6 animals per group). Furthermore, the mice were maintained under conditions of low-folic acid feed breeding from the age of 5 weeks to the day of test completion.
Pemetrexed (manufactured by LC Laboratories, Inc.) was dissolved in physiological saline, and the solution was administered through the caudal vein on Day 1, which was the day after the day of grouping, and on Day 8, which was one week thereafter. Furthermore, Compound 1 was suspended in a 0.5% aqueous solution of hydroxypropylmethyl cellulose, and the suspension was orally administered once a day for 14 consecutive days from the day after the day of grouping. […]
After grouping, the body weights (BW) were measured twice a week, and the rate of bodyweight change (bodyweight change; BWC) was calculated by the following formula, the toxicity alleviating effect was evaluated. […]

For the compound `Nc1nc2[nH]cc(CCc3ccc(C(=O)N[C@@H](CCC(=O)O)C(=O)O)cc3)c2c(=O)[nH]1` [Pemetrexed], the “No. of Death” value was 1/6. Also, for the setting “listed as pemetrexed”, the “No. of Death” value is given as “one death case out of six animals”.
